The values below come from PubChem BioAssay (NCI).

What all share (test): NCI anticancer screen, dose series, 48 h
Assay [1] deals with MOLT-4 leukemia.
Assay [2] relates to A549 NSCLC.
Assay [3] relates to SNB-75 CNS.
In assay [4] the test system is KM12 colon.
Assay [5] concerns COLO 205 colon.
Assay [6] deals with MDA-MB-231 breast.
The subject of assay [7] is BT-549 breast.
Assay [8] deals with 786-0 renal.
In assay [9] the test system is MALME-3M melanoma.
For assay [10], the system named is SK-OV-3 ovarian.
The subject of assay [11] is SK-MEL-5 melanoma.
For assay [12], the system named is ACHN renal.
Assay [13] concerns OVCAR-5 ovarian.
Assay [14] deals with PC-3 prostate.

The structures appear in SMILES notation.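 Cells were grown in 96-well plates and exposed to each compound for 48 hours at five concentrations; endpoints were interpolated linearly between bracketing concentrations, or set to the highest concentration if not reached. GI50 = concentration required for 50% inhibition of growth. TGI denotes the concentration required for complete inhibition of growth.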

For the compound `O=[S@]1c2ccc3ccccc3c2N[C@@H]2[C@H]1[C@H]1C=C[C@@H]2C1`, the TGI in [1] is above 100 µM; in assay [2] it was above 100 µM; in assay [3] it was 73.4 µM; in [4], above 100 µM; in assay [5], above 100 µM; in assay [6], above 100 µM. Also, the TGI in assay [7], in [8], in [9], in [10], in [11] and in assay [12] was above 100 µM each time. Moreover, the TGI in assay [13] and in assay [14] was above 100 µM each time.
For `CSc1nc2c(c(=O)n1C)N=C(c1ccc([N+](=O)[O-])cc1)CC(c1ccccc1)N2` (stereo unspecified), the TGI in assay [1], in assay [2], in [3], in assay [4], in assay [5] and in assay [6] was above 100 µM each time. The TGI in assay [7], in [8], in [9], in [10], in assay [11] and in assay [12] was above 100 µM in each case. Besides, the TGI in assay [13] and in [14] was above 100 µM throughout.
As for `COc1ccccc1C(O)[C@@H]1C[C@@H]2[C@H]3CC[C@@](C)([C@@H]2O1)C3(C)C` (stereo partly specified), the TGI in assay [1] was 39 µM; in [2], 43.4 µM; in [3], 37.7 µM; in assay [4], 41.6 µM; in assay [5] it was 35.2 µM; in assay [6], 34.4 µM. Further, the TGI is 42.2 µM in assay [7]; 32.7 µM in assay [8]; 30.2 µM in assay [9]; 87.1 µM in assay [10]; 31.6 µM in assay [11]; 35.4 µM in assay [12]. Also, the TGI in assay [13] came out at 38.6 µM; in assay [14], 45.2 µM.
Consider `O=C(/C=C/c1ccccc1)Nc1ccccc1SCCCCl`, for which the TGI in [1] was above 100 µM; in assay [2] it was above 100 µM; in [3], above 87.1 µM; in [4], above 64.6 µM; in assay [5] it was 48.5 µM; in assay [6], 74.5 µM. Moreover, the TGI in [7] was above 36 µM; in assay [8] it was above 100 µM; in assay [9], above 100 µM; in [10] it was above 100 µM; in assay [11], above 91.4 µM; in [12], above 100 µM. The TGI in [13] and in [14] was above 100 µM in each case.
On to `CCOC(=O)/C=C(/C(=O)OCC)n1ccc(=O)n(Cc2cnnn2COCCOC(C)=O)c1=O`, for which the TGI was 23.4 µM in assay [1]; above 100 µM in [2]; above 100 µM in assay [3]; above 56.4 µM in [4]; 9.73 µM in assay [5]; 38.7 µM in [6]. Further, the TGI is 38.2 µM in assay [7]; 29.2 µM in assay [8]; 26.3 µM in [9]; above 100 µM in assay [10]; 38.2 µM in assay [11]; 22.1 µM in assay [12]. Besides, the TGI in assay [13] worked out at 35.9 µM; in [14], 34.2 µM.
In the case of `Cc1ccc2c(=O)cc(-c3ccc4ccccc4c3)[nH]c2n1`, the TGI in assay [1] is 29.1 µM; in [2], above 100 µM; in assay [3], 14.6 µM; in assay [4] it was 65.4 µM; in [5] it was 5.55 µM; in assay [6], above 100 µM. Besides, the TGI is above 100 µM in [7]; above 100 µM in assay [8]; above 100 µM in assay [9]; above 100 µM in assay [10]; 12.7 µM in assay [11]; above 100 µM in assay [12]. The TGI in assay [13] was above 100 µM; in assay [14], 9.61 µM. For the same compound, the GI50 in [11] is 3.3 µM; in [14], 2.62 µM.
Regarding `O=[N+]([O-])c1ccc(-n2nc3ccc4c(no[n+]4[O-])c3n2)cc1`, the TGI in assay [1], in assay [2], in assay [3], in assay [4], in assay [5] and in assay [6] was above 100 µM throughout. Also, the TGI in assay [7], in assay [8], in [9], in assay [10], in assay [11] and in assay [12] was above 100 µM throughout. For the same compound, the TGI in assay [13] and in assay [14] was above 100 µM each time.
Turning to `COc1ccc(N=NC(=O)NC(CC(C)C)C(=O)NCC(=O)O)cc1` (stereo unspecified), the TGI in [1] was above 100 µM; in assay [2], above 61.9 µM; in assay [3], above 100 µM; in assay [4] it was above 100 µM; in [5] it was 24.5 µM; in assay [6], above 100 µM. Further, the TGI in assay [7] was above 100 µM; in assay [8], above 100 µM; in [9], above 100 µM; in assay [10], above 100 µM; in assay [11] it was above 56.2 µM; in [12] it was above 100 µM. In addition, the TGI in [13] and in assay [14] was above 100 µM in each case.
Turning to `CC(C)CC(N)C(=O)Nc1ccc2ccccc2c1` (stereo unspecified), the TGI in assay [1], in assay [2], in assay [3], in assay [4], in [5] and in assay [6] was above 100 µM in each case. Further, the TGI in assay [7], in assay [8], in assay [9], in assay [10], in assay [11] and in assay [12] was above 100 µM in each case. Further, the TGI in assay [13] and in [14] was above 100 µM in each case.
For the compound `CCCCc1ccc(Nc2nc(OC)c3ncn(C4CC(O)C(CO)O4)c3n2)cc1` (stereo unspecified), the TGI came out at 36.7 µM in assay [1]; 39.3 µM in [2]; 36.1 µM in assay [3]; 32 µM in assay [4]; 28.4 µM in assay [5]; 38 µM in assay [6]. In addition, the TGI amounted to 38.1 µM in assay [7]; 30.9 µM in assay [8]; 42.7 µM in [9]; 27.8 µM in assay [10]; 33.8 µM in [11]; 31.2 µM in assay [12]. Besides, the results for the TGI in assay [13] and in [14] were above 100 µM and 37.5 µM, respectively.
For `Nc1nc(NCCCO)cc(=O)[nH]1`, the TGI in [1], in [2], in assay [3], in [4], in [5] and in [6] was above 100 µM throughout. Moreover, the TGI in assay [7], in assay [8], in [9], in assay [10], in [11] and in assay [12] was above 100 µM in each case. The TGI in [13] and in [14] was above 100 µM each time.
`Cc1ccc2c(=O)cc(-c3ccc(C)s3)[nH]c2n1`: the TGI in assay [1] was above 100 µM; in [2], above 33.8 µM; in assay [3], above 100 µM; in assay [4] it was 15.9 µM; in assay [5] it was 2.29 µM; in assay [6] it was above 100 µM. For the same compound, the TGI in assay [7] is above 100 µM; in assay [8], above 100 µM; in assay [9], 53 µM; in assay [10], above 100 µM; in assay [11] it was 3.41 µM; in [12], above 69 µM. For the same compound, the TGI in assay [13] was above 100 µM; in assay [14], above 44.9 µM.
With `COc1cccc(C2c3cc4c(cc3OC(NNS(=O)(=O)c3ccc(C)cc3)C2C)OCO4)c1OC` (stereo unspecified), the TGI was found to be 9.02 µM in [1]; 11.4 µM in [2]; 60.5 µM in [3]; 13.5 µM in assay [4]; 3.79 µM in assay [5]; 27.6 µM in assay [6]. Moreover, the TGI in assay [7] is 36 µM; in assay [8] it was 68.3 µM; in [9], 49.9 µM; in assay [10], 7.83 µM; in assay [11] it was 19 µM; in assay [12] it was 9.85 µM. The TGI was determined as 74.2 µM in [13] and 92.4 µM in assay [14].
As to `CC(=O)c1ccc2c(c1)CC1(C2)Cc2cc3c(c(C(=O)O)c2C1)CCC3` (stereo unspecified), the TGI in [1], in assay [2], in assay [3], in assay [4], in assay [5] and in assay [6] was above 100 µM in each case. Besides, the TGI in [7], in [8], in [9], in assay [10], in assay [11] and in assay [12] was above 100 µM each time. Besides, the TGI in [13] and in assay [14] was above 100 µM each time.
Regarding `CCC(C)[C@@H](Nc1c(O)c2c(c(O)c1Cl)C(=O)C=CC2=O)C(=O)OC` (stereo partly specified), the TGI was 5.94 µM in assay [1]; above 10 µM in assay [2]; above 10 µM in assay [3]; above 10 µM in assay [4]; 4.02 µM in [5]; 7.81 µM in assay [6]. The TGI was above 10 µM in assay [7]; above 10 µM in assay [8]; 5.14 µM in [9]; above 10 µM in assay [10]; 4.51 µM in assay [11]; above 10 µM in assay [12]. Further, the TGI in [13] and in assay [14] was above 10 µM each time.
With `CN(C)c1c(C2OC(CO)C(O)C2O)c(=O)c1=O` (stereo unspecified), the TGI in assay [1], in assay [2], in assay [3], in assay [4], in assay [6] and in assay [7] was above 100 µM throughout. Further, the TGI in assay [8], in assay [9], in [10], in [12], in assay [13] and in assay [14] was above 100 µM each time.
As for `NC1CCC(N(CC(=O)O)CC(=O)O)C(N(CC(=O)O)CC(=O)O)C1` (stereo unspecified), the TGI in assay [1], in [2], in [3], in assay [4], in assay [5] and in [6] was above 100 µM throughout. In addition, the TGI in assay [7], in assay [9], in assay [10], in assay [11], in assay [12] and in assay [13] was above 100 µM in each case. The compound also yielded a TGI in [14] above 100 µM.
Consider `CC(Nc1ccc(Cl)c(Cl)c1)c1ccncc1` (stereo unspecified), for which the TGI in assay [1] was above 100 µM; in [2], above 100 µM; in assay [3], 97.7 µM; in assay [4] it was 40.1 µM; in assay [5], 31.4 µM; in assay [6], 45.1 µM. For the same compound, the TGI in assay [7] was 86.3 µM; in assay [8], 60.5 µM; in assay [9] it was above 100 µM; in assay [10], 29.3 µM; in [11], 30.3 µM; in assay [12], above 100 µM. This compound displayed a TGI in assay [14] of 75.2 µM.
On to `CCCSc1ccc2[nH]c(N3C(=O)/C(=C/c4ccc(SC)cc4)N=C3c3ccccc3)cc2c1`, for which the TGI was above 50 µM in assay [2]; above 50 µM in assay [3]; 32.7 µM in [4]; above 43.2 µM in assay [5]; above 50 µM in assay [6]; above 50 µM in assay [7]. Besides, the TGI is above 50 µM in [8]; above 50 µM in assay [9]; above 50 µM in [10]; above 36.3 µM in [11]; above 50 µM in assay [12]; above 50 µM in assay [13]. In addition, in [14], the TGI was above 50 µM.
For the compound `Cc1cccc2sc(-c3ccc(O)cc3)nc12`, the TGI is above 100 µM in assay [1]; 34.8 µM in [2]; 26.2 µM in [3]; 31.6 µM in [4]; 28.1 µM in [5]; 38.7 µM in [6]. Moreover, the TGI in assay [7] came to 25.2 µM; in assay [9], 32.8 µM; in assay [10] it was 35.4 µM; in assay [11] it was 20.6 µM; in [12], 33 µM; in [13], 30.2 µM. Moreover, the TGI in assay [14] came to 31.7 µM.
